Key:
[1] = molecular target: T1, Recombinant STAT6 protein (STAT6 (W123-T658)) (Homo sapiens, UniProt P42226); experiment: STAT6 Fluorescence Polarization (FP) Assay; type: binding; details: STAT6 (W123-T658) 250 nM, probe 5-FAM-Ap[…]-NH2 2 nM, 45-minute incubation; read-out: STAT6 (FP assay IC50 class)
T1 construct: Recombinant STAT6 protein (STAT6 (W123-T658))
T1 sequence (P42226 123-658): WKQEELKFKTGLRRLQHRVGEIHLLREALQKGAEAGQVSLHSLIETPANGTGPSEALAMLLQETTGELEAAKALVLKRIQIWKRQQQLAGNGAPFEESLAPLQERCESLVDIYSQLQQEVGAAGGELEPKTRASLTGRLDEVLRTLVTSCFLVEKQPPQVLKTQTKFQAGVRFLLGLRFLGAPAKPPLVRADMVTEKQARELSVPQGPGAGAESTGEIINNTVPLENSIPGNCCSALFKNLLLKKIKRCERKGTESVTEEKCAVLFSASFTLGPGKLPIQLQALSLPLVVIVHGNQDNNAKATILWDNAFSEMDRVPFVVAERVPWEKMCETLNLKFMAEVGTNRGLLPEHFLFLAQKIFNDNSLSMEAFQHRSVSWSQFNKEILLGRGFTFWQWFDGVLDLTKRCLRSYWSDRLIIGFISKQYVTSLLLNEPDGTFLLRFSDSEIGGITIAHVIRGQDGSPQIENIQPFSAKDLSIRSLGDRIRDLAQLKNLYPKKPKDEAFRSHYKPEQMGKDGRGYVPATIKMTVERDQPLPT
Summary of the method: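 Protein-probe mix (250 nM STAT6 W123-T658, 2 nM 5-FAM-pTyr peptide) in 10 mM HEPES pH 7.4, 50 mM NaCl, 1 mM EDTA, 0.05% Tween 20, 2 mM DTT; added to compound dilution series, 1% DMSO final; 45 min RT; FP read; IC50 via nonlinear regression.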

[2] = molecular target: T2, Recombinant STAT3 protein (STAT3 (G127-I722)) (Homo sapiens, UniProt P40763); experiment: STAT3 Fluorescence Polarization (FP) Assay; type: binding; details: STAT3 (G127-I722) 25 nM, probe 5-FAM-GpYLPQTV-NH2 2 nM, 45-minute incubation; read-out: STAT3 (FP assay IC50 class)
T2 construct: Recombinant STAT3 protein (STAT3 (G127-I722))
Summary of the method: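 Read-out is fluorescence polarization (mP) after 45 min at room temperature, with IC50 fitted by nonlinear regression against log compound concentration. Mixture: 25 nM STAT3 (G127-I722), 2 nM 5-FAM-GpYLPQTV-NH2 phosphopeptide, 10 mM HEPES pH 7.4 buffer, 1% DMSO.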

T2 sequence (P40763 127-722): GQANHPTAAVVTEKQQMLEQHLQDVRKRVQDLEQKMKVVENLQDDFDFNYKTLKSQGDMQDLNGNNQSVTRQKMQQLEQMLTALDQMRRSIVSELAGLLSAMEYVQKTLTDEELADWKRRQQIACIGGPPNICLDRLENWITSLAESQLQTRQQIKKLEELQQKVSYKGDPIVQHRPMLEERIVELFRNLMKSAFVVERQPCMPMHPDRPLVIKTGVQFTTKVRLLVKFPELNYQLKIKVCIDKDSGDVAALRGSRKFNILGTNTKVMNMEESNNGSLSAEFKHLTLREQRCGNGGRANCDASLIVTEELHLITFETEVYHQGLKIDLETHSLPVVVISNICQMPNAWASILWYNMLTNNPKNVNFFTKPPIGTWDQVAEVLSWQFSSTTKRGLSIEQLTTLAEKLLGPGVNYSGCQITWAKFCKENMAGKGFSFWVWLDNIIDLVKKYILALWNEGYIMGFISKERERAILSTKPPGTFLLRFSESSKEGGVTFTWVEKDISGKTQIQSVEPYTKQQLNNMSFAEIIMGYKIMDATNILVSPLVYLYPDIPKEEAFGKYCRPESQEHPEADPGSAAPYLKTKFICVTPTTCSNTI

| Compound | IC50 [1] | IC50 [2] |
| --- | --- | --- |
| O=C(N[C@H]1CCCC[C@H]2CC[C@@H](C(=O)N3CCC(c4ccn(C5CC5)c(=O)c4)C3)N2C1=O)c1ccc2ccc(C(F)P(=O)(O)O)cc2c1 (stereo partly drawn) [Compound 906, ((7-(((3S,6S,10aS)-3-(3-(1-cyclopropyl-2-oxo-1,2-dihydropyridin-4-yl)pyrrolidine-1-carbonyl)-5-oxodecahydropyrrolo[1,2-a]azocin-6-yl)carbamoyl)naphthalen-2-yl)fluoromethyl) phosphonic acid] | 0.3 to 3 µM | 1 to 10 µM |
| Cn1ncc(C2CCN(C(=O)[C@@H]3CC[C@@H]4CCCC[C@H](NC(=O)c5cc6cc(C(F)P(=O)(O)O)ccc6s5)C(=O)N43)C2)cc1=O (stereo partly drawn) [Compound 913, (fluoro(2-(((3S,6S,10aS)-3-(3-(1-methyl-6-oxo-1,6-dihydropyridazin-4-yl)pyrrolidine-1-carbonyl)-5-oxodecahydropyrrolo [1,2-a]azocin-6-yl)carbamoyl)benzo [b]thiophen-5-yl)methyl) phosphonic acid] | 0.3 to 3 µM | 1 to 10 µM |
| O=C(N[C@H]1CCC[C@H]2CC[C@@H](C(=O)N3C(=O)N(c4cccnc4)C(=O)C34CC4)N2C1=O)c1cc2cc([C@H](F)P(=O)(O)O)ccc2s1 [Compound 915, ((R)-(2-(((3S,6S,9aS)-3-(5,7-dioxo-6-(pyridin-3-yl)-4,6-diazaspiro[2.4]heptane-4-carbonyl)-5-oxooctahydro-1H-pyrrolo[1,2-a]azepin-6-yl)carbamoyl)benzo [b]thiophen-5-yl)fluoromethyl) phosphonic acid] | ≤ 0.3 µM | 1 to 10 µM |
| N#C[C@H]1[C@H](c2ccccc2)CN(C(=O)[C@@H]2CC[C@@H]3CCC[C@H](NC(=O)c4cc5cc(CP(=O)(O)O)ccc5s4)C(=O)N32)C12CC2 [Compound 922, ((2-(((3S,6S,9aS)-3-((6R,7S)-7-cyano-6-phenyl-4-azaspiro[2.4]heptane-4-carbonyl)-5-oxooctahydro-1H-pyrrolo[1,2-a]azepin-6-yl)carbamoyl)benzo [b]thiophen-5-yl)methyl) phosphonic acid] | 0.3 to 3 µM | 1 to 10 µM |
| COC[C@@H]1CCN1c1ccncc1C1CN(C(=O)[C@@H]2CC[C@@H]3CCC[C@H](NC(=O)c4cc5cc([C@@H](F)P(=O)(O)O)ccc5s4)C(=O)N32)C1 [Compound 926, ((S)-fluoro(2-(((3S,6S,9aS)-3-(3-(4-((S)-2-(methoxymethyl)azetidin-1-yl)pyridin-3-yl)azetidine-1-carbonyl)-5-oxooctahydro-1H-pyrrolo[1,2-a]azepin-6-yl)carbamoyl)benzo [b]thiophen-5-yl)methyl) phosphonic acid] | 3 to 30 µM | < 0.1 µM |
| O=C(N[C@H]1CCC[C@H]2CC[C@@H](C(=O)N3CC(c4ccnc(O)n4)C3)N2C1=O)c1cc2cc(C(F)P(=O)(O)O)ccc2s1 (stereo partly drawn) [Compound 927, (fluoro(2-(((3S,6S,9aS)-3-(3-(2-hydroxypyrimidin-4-yl)azetidine-1-carbonyl)-5-oxooctahydro-1H-pyrrolo[1,2-a]azepin-6-yl)carbamoyl)benzo [b]thiophen-5-yl)methyl) phosphonic acid] | 3 to 30 µM | < 0.1 µM |
| CCOc1c(F)cncc1C1CN(C(=O)[C@@H]2CC[C@@H]3CCC[C@H](NC(=O)c4cc5cc([C@@H](F)P(=O)(O)O)ccc5s4)C(=O)N32)C1 [Compound 928, ((S)-(2-(((3S,6S,9aS)-3-(3-(4-ethoxy-5-fluoropyridin-3-yl)azetidine-1-carbonyl)-5-oxooctahydro-1H-pyrrolo[1,2-a]azepin-6-yl)carbamoyl)benzo [b]thiophen-5-yl)fluoromethyl) phosphonic acid] | 3 to 30 µM | 1 to 10 µM |
| COc1c(C2CN(C(=O)[C@@H]3CC[C@@H]4CCC[C@H](NC(=O)c5cc6cc(C(F)P(=O)(O)O)ccc6s5)C(=O)N43)C2)ccnc1C#N (stereo partly drawn) [Compound 932, ((2-(((3S,6S,9aS)-3-(3-(2-cyano-3-methoxypyridin-4-yl)azetidine-1-carbonyl)-5-oxooctahydro-1H-pyrrolo[1,2-a]azepin-6-yl)carbamoyl)benzo [b]thiophen-5-yl)fluoromethyl) phosphonic acid] | 3 to 30 µM | < 0.1 µM |
| COC1CN(c2ccncc2C2CN(C(=O)[C@@H]3CC[C@@H]4C[C@H](C)C[C@H](NC(=O)c5cc6cc(CP(=O)(O)O)ccc6s5)C(=O)N43)C2)C1 [Compound 933, ((2-(((3S,6S,8R,9aR)-3-(3-(4-(3-methoxyazetidin-1-yl)pyridin-3-yl)azetidine-1-carbonyl)-8-methyl-5-oxooctahydro-1H-pyrrolo[1,2-a]azepin-6-yl)carbamoyl)benzo [b]thiophen-5-yl)methyl) phosphonic acid] | 3 to 30 µM | < 0.1 µM |

Continued, values first:

| IC50 [1] | IC50 [2] | Compound |
| --- | --- | --- |
| ≤ 0.3 µM | 1 to 10 µM | O=C(N[C@H]1CCC[C@H]2CC[C@@H](C(=O)N3CC(c4cccnc4)CC34CC4)N2C1=O)c1cc2cc(C(F)P(=O)(O)O)ccc2s1 (stereo partly drawn) [Compound 907, (fluoro(2-(((3S,6S,9aS)-5-oxo-3-(6-(pyridin-3-yl)-4-azaspiro[2.4]heptane-4-carbonyl)octahydro-1H-pyrrolo[1,2-a]azepin-6-yl)carbamoyl)benzo [b]thiophen-5-yl)methyl) phosphonic acid] |
| ≤ 0.3 µM | 1 to 10 µM | O=C(N[C@H]1CCCC[C@H]2CC[C@@H](C(=O)N3CC(c4cccnc4)CC34CC4)N2C1=O)c1cc2cc(C(F)P(=O)(O)O)ccc2s1 (stereo partly drawn) [Compound 912, (fluoro(2-(((3S,6S,10aS)-5-oxo-3-(6-(pyridin-3-yl)-4-azaspiro[2.4]heptane-4-carbonyl)decahydropyrrolo[1,2-a]azocin-6-yl)carbamoyl)benzo [b]thiophen-5-yl)methyl) phosphonic acid] |
| 0.3 to 3 µM | 0.1 to 1 µM | Cn1ccc(C2(O)CCN(C(=O)[C@@H]3CC[C@@H]4CCCC[C@H](NC(=O)c5cc6cc(C(F)P(=O)(O)O)ccc6s5)C(=O)N43)C2)cc1=O (stereo partly drawn) [Compound 914, (fluoro(2-(((3S,6S,10aS)-3-(3-hydroxy-3-(1-methyl-2-oxo-1,2-dihydropyridin-4-yl)pyrrolidine-1-carbonyl)-5-oxodecahydropyrrolo [1,2-a]azocin-6-yl)carbamoyl)benzo [b]thiophen-5-yl)methyl) phosphonic acid] |
| 3 to 30 µM | < 0.1 µM | N#Cc1cc(C2CN(C(=O)[C@@H]3CC[C@@H]4CCC[C@H](NC(=O)c5cc6cc(C(F)P(=O)(O)O)ccc6s5)C(=O)N43)C2)ccn1 (stereo partly drawn) [Compound 918, ((2-(((3S,6S,9aS)-3-(3-(2-cyanopyridin-4-yl)azetidine-1-carbonyl)-5-oxooctahydro-1H-pyrrolo[1,2-a]azepin-6-yl)carbamoyl)benzo [b]thiophen-5-yl)fluoromethyl) phosphonic acid] |
| 3 to 30 µM | < 0.1 µM | COc1c(C2CN(C(=O)[C@@H]3CC[C@@H]4CCC[C@H](NC(=O)c5cc6cc(C(F)P(=O)(O)O)ccc6s5)C(=O)N43)C2)ccnc1F (stereo partly drawn) [Compound 925, (fluoro(2-(((3S,6S,9aS)-3-(3-(2-fluoro-3-methoxypyridin-4-yl)azetidine-1-carbonyl)-5-oxooctahydro-1H-pyrrolo[1,2-a]azepin-6-yl)carbamoyl)benzo [b]thiophen-5-yl)methyl) phosphonic acid] |
| ≤ 0.3 µM | 1 to 10 µM | N#C[C@H]1[C@H](c2ccccc2)CN(C(=O)[C@@H]2CC[C@@H]3CCCC[C@H](NC(=O)c4cc5cc(CP(=O)(O)O)ccc5s4)C(=O)N32)C12CC2 [Compound 929, ((2-(((3S,6S,10aS)-3-((6R,7S)-7-cyano-6-phenyl-4-azaspiro[2.4]heptane-4-carbonyl)-5-oxodecahydropyrrolo [1,2-a]azocin-6-yl)carbamoyl)benzo [b]thiophen-5-yl)methyl) phosphonic acid] |
| 3 to 30 µM | 0.1 to 1 µM | CCC[C@@H]1CC[C@H](NC(=O)c2cc3cc([C@H](F)P(=O)(O)O)ccc3s2)C(=O)N2[C@H](CC[C@H]2C(=O)N2CC(c3cnccc3N3CCC3)C2)C1 [Compound 930, ((R)-(2-(((3S,6S,9R,10aR)-3-(3-(4-(azetidin-1-yl)pyridin-3-yl)azetidine-1-carbonyl)-5-oxo-9-propyldecahydro-pyrrolo[1,2-a]azocin-6-yl)carbamoyl)benzo [b]thiophen-5-yl)fluoromethyl) phosphonic acid] |
| 0.3 to 3 µM | < 0.1 µM | CC[C@@H]1CC[C@H](NC(=O)c2cc3cc([C@H](F)P(=O)(O)O)ccc3s2)C(=O)N2[C@H](CC[C@H]2C(=O)N2CC(c3cnccc3N3CCC3)C2)C1 [Compound 931, ((R)-(2-(((3S,6S,9R,10aR)-3-(3-(4-(azetidin-1-yl)pyridin-3-yl)azetidine-1-carbonyl)-9-ethyl-5-oxodecahydropyrrolo [1,2-a]azocin-6-yl)carbamoyl)benzo [b]thiophen-5-yl)fluoromethyl) phosphonic acid] |
